From ChEMBL document CHEMBL4196184, “Colocynthenins A-D, Ring-A seco-Cucurbitane Triterpenoids from the Fruits of Citrullus colocynthis” (J Nat Prod, 2018)
Active and inactive are the calls of the source. The rule behind the calls is not given here.

Tests used:
[1] = target: T1, Acetylcholinesterase (Homo sapiens, UniProt P22303); assay: Inhibition of AChE (unknown origin) at 10 uM using acetylthiocholine iodide as substrate preincubated for 10 mins followed by substrate addition measured after 10 mins by Ellman's method
[2] = target: T1, Acetylcholinesterase; assay: Inhibition of AChE (unknown origin) using acetylthiocholine iodide as substrate preincubated for 10 mins followed by substrate addition measured after 10 mins by Ellman's method

T1 sequence (P22303 whole entry): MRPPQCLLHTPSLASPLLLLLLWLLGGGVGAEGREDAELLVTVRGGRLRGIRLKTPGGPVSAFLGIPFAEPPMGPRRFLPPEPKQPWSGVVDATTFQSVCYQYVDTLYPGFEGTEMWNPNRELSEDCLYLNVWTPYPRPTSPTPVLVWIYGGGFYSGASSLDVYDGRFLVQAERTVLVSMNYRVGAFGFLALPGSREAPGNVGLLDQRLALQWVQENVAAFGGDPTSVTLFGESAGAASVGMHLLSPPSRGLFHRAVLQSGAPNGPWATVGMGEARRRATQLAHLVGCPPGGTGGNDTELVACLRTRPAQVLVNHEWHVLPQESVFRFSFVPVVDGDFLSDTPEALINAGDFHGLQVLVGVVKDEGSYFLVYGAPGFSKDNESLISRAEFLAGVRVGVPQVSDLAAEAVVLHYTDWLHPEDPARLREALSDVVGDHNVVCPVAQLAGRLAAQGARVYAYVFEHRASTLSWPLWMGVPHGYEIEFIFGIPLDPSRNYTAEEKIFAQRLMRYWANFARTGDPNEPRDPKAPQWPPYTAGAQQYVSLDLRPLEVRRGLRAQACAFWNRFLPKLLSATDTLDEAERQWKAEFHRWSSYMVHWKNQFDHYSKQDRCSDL

Row | Structure (SMILES) | inhibition [1] | IC50 [2] [µM]
1 | CC(=O)OC(C)(C)/C=C/C(=O)[C@](C)(O)[C@H]1[C@H](O)C[C@@]2(C)[C@@H]3[C@@H](O)C=C4[C@@H](C=C(O[C@@H]5O[C@H](CO)[C@@H](O)[C@H](O)[C@H]5O)C(=O)C4(C)C)[C@]3(C)C(=O)C[C@]12C | inactive | –
2 | CC(=O)OC(C)(C)/C=C/C(=O)[C@](C)(O)[C@H]1[C@H](O)C[C@@]2(C)[C@@H]3CC=C(C(C)(C)C(=O)O)/C(=C\C#N)[C@]3(C)C(=O)C[C@]12C | inactive | –
3 | COC(=O)C(C)(C)C1=CC[C@@H]2[C@@](C)(C(=O)C[C@]3(C)[C@@H]([C@@](C)(O)C(=O)/C=C/C(C)(C)OC(C)=O)[C@H](O)C[C@@]23C)/C1=C/C(=O)O | inactive | –
4 | CC(=O)OC(C)(C)/C=C/C(=O)[C@](C)(O)[C@H]1[C@H](O)C[C@@]2(C)[C@@H]3CC=C4[C@@H](C[C@H](O[C@@H]5O[C@H](CO)[C@@H](O)[C@H](O)[C@H]5O)C(=O)C4(C)C)[C@]3(C)C(=O)C[C@]12C | inactive | –
5 | CC(=O)OC(C)(C)/C=C/C(=O)[C@](C)(O)[C@H]1[C@H](O)C[C@@]2(C)[C@@H]3CC=C4[C@@H](C[C@H](O)C(=O)C4(C)C)[C@]3(C)C(=O)C[C@]12C | inactive | –
6 | CC(=O)OC[C@H]1O[C@@H](OC2=C[C@@H]3C(=CC[C@@H]4[C@@]3(C)C(=O)C[C@]3(C)[C@@H]([C@@](C)(O)C(=O)/C=C/C(C)(C)OC(C)=O)[C@H](O)C[C@@]43C)C(C)(C)C2=O)[C@H](O)[C@@H](O)[C@@H]1O | inactive | –
7 | CC(=O)OC(C)(C)/C=C/C(=O)[C@](C)(O)[C@H]1[C@H](O)C[C@@]2(C)[C@@H]3CC=C4[C@@H](C=C(O)C(=O)C4(C)C)[C@]3(C)C(=O)C[C@]12C | inactive | –
8 | CC(=O)OC(C)(C)/C=C/C(=O)[C@](C)(O)[C@H]1[C@H](O)C[C@@]2(C)[C@@H]3CC=C(C(C)(C)C(=O)O)C4=CC(=O)O[C@](O)(C[C@]12C)[C@@]43C | – | 2.6
9 | CC(=O)OC(C)(C)CCC(=O)[C@](C)(O)[C@H]1[C@H](O)C[C@@]2(C)[C@@H]3CC=C4[C@@H](C[C@H](O[C@@H]5O[C@H](CO)[C@@H](O)[C@H](O)[C@H]5O)C(=O)C4(C)C)[C@]3(C)C(=O)C[C@]12C | inactive | –
10 | CC(=O)OC(C)(C)CCC(=O)[C@](C)(O)[C@H]1[C@H](O)C[C@@]2(C)[C@@H]3CC=C4[C@@H](C[C@H](O)C(=O)C4(C)C)[C@]3(C)C(=O)C[C@]12C | inactive | –
11 | CC(=O)OC(C)(C)/C=C/C(=O)[C@](C)(O)[C@H]1[C@H](O)C[C@@]2(C)[C@@H]3CC=C(C(C)(C)C(=O)O)/C(=C\C(=O)O)[C@]3(C)C(=O)C[C@]12C | – | 3.1
